Source: the supplement of paper PMC11451515

Tested on: SEM cells
Assay: AUC of viability dose-response curve (% viability x log10 dose units); higher = less sensitive
Details: 48 h
Method in brief: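 Leukemia cells adapted to each medium (500 or 1000 cells/well, 1536-well plates) were exposed to library compounds in DMSO for 48 h at 37°C at 11 threefold doses, 47 μM to 0.79 nM. Luminescence by CellTiter-Glo One was normalised per plate to DMSO and cell-free wells, then fitted with a four-parameter log-logistic curve on log10 dose. Curves above full viability were scaled and quality-control failures removed before area under the curve was integrated by trapezoidal rule.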

[1] = RPMI 5 mM glucose + 10% dialyzed FBS

SMILES	AUC of viability dose-response curve (HPLM + 10% dialyzed FBS)	AUC of viability dose-response curve (RPMI 5 mM glucose + 10% FBS)	AUC of viability dose-response curve [1]
O=C(c1ccc(F)cc1)N1CCC[C@H](c2nc(-c3ccc(F)cc3)no2)C1	453	455	475
CCC1(c2ccccc2)C(=O)NCNC1=O	441	445	452
CC(C)N[C@@H]1CCn2c(=O)[nH]c3cccc(c32)[C@H]1O	463	465	473
NC1=C(Cl)C(=CC=N1)OC2=C(F)C=C(NC(=O)\C3=C\N\C=C(C3=O)\C4=CC=C(F)C=C4)C=C2	312	287	247
CC(C)OC(=O)C(C(=O)OC(C)C)=C1S\C=C/S1	458	446	438
